Values of other authors as cited in patent publication US20140017301A1, “DRUG-FREE COMPOSITIONS AND METHODS FOR DIMINISHING PERIPHERAL INFLAMMATION AND PAIN” (priority 2011, published 2014).

Conditions: excipients of Table 3

| Compound | log P |
| --- | --- |
| O=c1[nH]sc2ccccc12 [1,2-benzothiazol-3-one] | 1.08 |
| CC1(C)C(=O)N(CO)C(=O)N1CO [1,3-Dimethylol-5,5-dimethylhydantoin] | 0.6 |
| Cc1cc(O)c(C)c(C)c1O [2,3,5-trimethylbenzene-1,4-diol] | 2.12 |
| O=C(O)CNCO [2-(hydroxymethylamino)acetic adic] | −2.2 |
| Cn1sccc1=O [2-methyl-1,2-thiazol-3-one] | −0.06 |
| OCC(O)CS (stereo not shown) [3-sulfanylpropane-1,2-diol] | −0.57 |
| CCCCOC(=O)c1ccc(O)cc1 [Butyl 4-hydroxybenzoate; butylparabene, Butyl 4-hydroxybenzoate] | 3.07 |
| COc1ccc(O)c(C(C)(C)C)c1 [Butylated hydroxyanisole, BHA, Butylated hydroxyanisole] | 3.13 |
| CC(=O)C1C(=O)C=C(C)OC1=O (stereo not shown) [Dehydroacetic acid] | −0.05 |
| NC(N)=S [Thiourea] | −0.96 |
| Propanediol | −0.71 |
| Tocopherol | 9.76 |

Further lines, results first:

| log P | Compound |
| --- | --- |
| 4.81 | CCCCCCOc1cc(C)c(O)c(C)c1C [4-hexoxy-2,3,6-trimethylphenol, HTHQ, 4-hexoxy-2,3,6-trimethylphenol] |
| 0.44 | O=[N+]([O-])C1(Br)COCOC1 [5-Bromo-5-nitro-1,3-dioxane, bronidox, 5-Bromo-5-nitro-1,3-dioxane] |
| 3.21 | Cc1ccc(C(C)C)c(O)c1 [6-isopropyl-m-cresol; thymol, 6-isopropyl-m-cresol] |
| 0.87 | CC(=O)OC1CC(C)OC(C)O1 (stereo not shown) [(2,6-dimethyl-1,3-dioxan-4-yl) acetate] |
| 1.23 | OCc1ccccc1 [Benzyl alcohol] |
| −3.2 | O=C1C(N(CO)C(=O)NCO)N(CO)C(=O)N1CO (stereo not shown) [Diazodinyl Urea (Germall II), Diazodinyl Urea] |
| 2.16 | CCOC(=O)c1ccc(O)cc1 [Ethyl 4-hydroxybenzoate; ethylparabene, Ethyl 4-hydroxybenzoate] |
| 1.72 | COC(=O)c1ccc(O)cc1 [Methyl 4-hydroxybenzoate; methylparabene, Methyl 4-hydroxybenzoate] |
| 1.26 | OCCOc1ccccc1 [Phenoxyethanol] |
| 1.61 | OCCc1ccccc1 [Phenylethanol] |
| 2.63 | CCCOC(=O)c1ccc(O)cc1 [Propyl 4-hydroxybenzoate; propylparabene, Propyl 4-hydroxybenzoate] |
| 1.38 | C/C=C/C=C/C(=O)O [Sorbic acid] |
| 3.67 | Benzalkonium |
